What was measured:
Type in all cases: in vivo
[1] = test system: Tetranychus urticae (Two-Spotted Spider Mite); test: Example B11: Tetranychus urticae feeding/contact activity, bean leaf discs; settings: foliar, 192 h
Protocol: Example B11: Tetranychus urticae (Two-Spotted Spider Mite): Feeding/Contact Activity
Bean leaf discs on agar in 24-well microtiter plates were sprayed with aqueous test solutions prepared from 10,000 ppm DMSO stock solutions. After drying the leaf discs were infested with a mite population of mixed ages. The samples were assessed for mortality on mixed population (mobile stages) 8 days after infestation.

[2] = test system: Spodoptera littoralis (Egyptian Cotton Leaf Worm); test: Example B10: Spodoptera littoralis systemic activity, lettuce grown on treated agar; settings: 144 h, test rate of 12.5 ppm, 6 days after infestation, read-out: effect in at least one of the three categories (mortality, anti-feeding, or growth inhibition)
Description: Example B10: Spodoptera littoralis (Egyptian Cotton Leaf Worm) Systemic Activity
Test compounds were applied by pipette from 10,000 ppm DMSO stock solutions into 24-well plates and mixed with agar. Lettuce seeds were placed onto the agar and the multi well plate was closed by another plate which contained also agar. After 7 days the compound was absorbed by the roots and the lettuce grew into the lid plate. The lettuce leaves were then cut off into the lid plate. Spodoptera eggs were pipetted through a plastic stencil onto a humid gel blotting paper and the lid plate was closed with it. The samples were assessed for mortality, anti-feedant effect and growth inhibition in comparison to untreated samples 6 days after infestation. The following compounds gave an effect of at least 80% in at least one of the three categories (mortality, anti-feeding, or growth inhibition) at a test rate of 12.5 ppm: […]

[3] = test system: Diabrotica balteata (Corn Root Worm); test: Example B2: Diabrotica balteata, sprayed maize sprouts, L2 larvae; settings: Diabrotica balteata, 96 h; application rate of 200 ppm; 4 days after infestation; L2 larvae; read-out: effect in at least one of the two categories (mortality or growth inhibition)
Protocol: Example B2: Diabrotica balteata (Corn Root Worm)
Maize sprouts placed onto an agar layer in 24-well microtiter plates were treated with aqueous test solutions prepared from 10,000 ppm DMSO stock solutions by spraying. After drying, the plates were infested with L2 larvae (6 to 10 per well). The samples were assessed for mortality and growth inhibition in comparison to untreated samples 4 days after infestation. The following compounds gave an effect of at least 80% in at least one of the two categories (mortality or growth inhibition) at an application rate of 200 ppm:
(§1) Insecticidal action against Diabrotica balteata (Corn root worm), Plutella xylostella (Diamond black moth), and Spodoptera littoralis (Egyptian cotton leaf worm). The tests were carried out as described in biological examples B2, B8 and B9, respectively, with the larval feeding/contact activity (mortality only) being reported as Breakpoint (BP80) values in parts per million (i.e. the lowest concentration which gives 80% larval mortality).

[4] = test system: Plutella xylostella (Diamond Back Moth); test: Example B8: Plutella xylostella, artificial diet, L2 larvae; settings: Plutella xylostella, 120 h; application rate of 200 ppm; 5 days after infestation; L2 larvae; read-out: effect in at least one of the two categories (mortality or growth inhibition)
Protocol: Example B8: Plutella xylostella (Diamond Back Moth)
24-well microtiter plates with artificial diet were treated with aqueous test solutions prepared from 10,000 ppm DMSO stock solutions by pipetting. After drying, the plates were infested with L2 larvae (10 to 15 per well). The samples were assessed for mortality and growth inhibition in comparison to untreated samples 5 days after infestation. The following compounds gave an effect of at least 80% in at least one of the two categories (mortality or growth inhibition) at an application rate of 200 ppm:
as §1

[5] = test system: Myzus persicae (Green Peach Aphid); test: Example B5: Myzus persicae feeding/contact activity, sunflower leaf discs; settings: foliar, 144 h, application rate of 200 ppm, 6 days after infestation
Protocol: Example B5: Myzus persicae (Green Peach Aphid): Feeding/Contact Activity
Sunflower leaf discs were placed onto agar in a 24-well microtiter plate and sprayed with aqueous test solutions prepared from 10,000 ppm DMSO stock solutions. After drying, the leaf discs were infested with an aphid population of mixed ages. The samples were assessed for mortality 6 days after infestation.

[6] = test system: Spodoptera littoralis (Egyptian Cotton Leaf Worm); test: Example B9: Spodoptera littoralis, cotton leaf discs, L1 larvae; settings: Spodoptera littoralis, foliar, 72 h; application rate of 200 ppm; 3 days after infestation; L1 larvae
Protocol: Example B9: Spodoptera littoralis (Egyptian Cotton Leaf Worm)
Cotton leaf discs were placed onto agar in 24-well microtiter plates and sprayed with aqueous test solutions prepared from 10,000 ppm DMSO stock solutions. After drying the leaf discs were infested with five L1 larvae. The samples were assessed for mortality, anti-feeding effect, and growth inhibition in comparison to untreated samples 3 days after infestation. Control of Spodoptera littoralis by a test sample is given when at least one of the categories mortality, anti-feedant effect, and growth inhibition is higher than the untreated sample.
as §1

[7] = test system: Myzus persicae (Green Peach Aphid); test: Example B7: Myzus persicae intrinsic activity, sucrose solution through Parafilm; settings: 120 h, test rate of 12 ppm, 5 days after infestation
Description: Example B7: Myzus persicae (Green Peach Aphid). Intrinsic Activity
Test compounds prepared from 10,000 ppm DMSO stock solutions were applied by pipette into 24-well microtiter plates and mixed with sucrose solution. The plates were closed with a stretched Parafilm. A plastic stencil with 24 holes was placed onto the plate and infested pea seedlings were placed directly on the Parafilm. The infested plate was closed with a gel blotting paper and another plastic stencil and then turned upside down. The samples were assessed for mortality 5 days after infestation.

[8] = test system: Euschistus heros (Neotropical Brown Stink Bug); test: Example B3: Euschistus heros, sprayed soybean leaves, N2 nymphs; settings: 120 h, application rate of 200 ppm, 5 days after infestation, read-out: effect in at least one of the two categories (mortality or growth inhibition)
Protocol: Example B3: Euschistus heros (Neotropical Brown Stink Bug)
Soybean leaves on agar in 24-well microtiter plates were sprayed with aqueous test solutions prepared from 10,000 ppm DMSO stock solutions. After drying the leaves were infested with N2 nymphs. The samples were assessed for mortality and growth inhibition in comparison to untreated samples 5 days after infestation. The following compounds gave an effect of at least 80% in at least one of the two categories (mortality or growth inhibition) at an application rate of 200 ppm: […]

[9] = test system: Frankliniella occidentalis (Western Flower thrips); test: Example B4: Frankliniella occidentalis feeding/contact activity, sunflower leaf discs; settings: foliar, 168 h, application rate of 200 ppm, 7 days after infestation, population of mixed ages
Protocol: Example B4: Frankliniella occidentalis (Western Flower thrips): Feeding/Contact Activity
Sunflower leaf discs were placed on agar in 24-well microtiter plates and sprayed with aqueous test solutions prepared from 10,000 DMSO stock solutions. After drying the leaf discs were infested with a Frankliniella population of mixed ages. The samples were assessed for mortality 7 days after infestation.

[10] = test system: Myzus persicae (Green Peach Aphid); test: Example B6: Myzus persicae systemic activity, pea seedling roots in test solution; settings: 144 h, test rate of 24 ppm, 6 days after placing seedlings into test solutions
Protocol: Example B6: Myzus persicae (Green Peach Aphid). Systemic Activity
Roots of pea seedlings infested with an aphid population of mixed ages were placed directly into aqueous test solutions prepared from 10,000 DMSO stock solutions. The samples were assessed for mortality 6 days after placing seedlings into test solutions.

[11] = test system: Bemisia tabaci (Cotton White Fly); test: Example B1: Bemisia tabaci feeding/contact activity, cotton leaf discs; settings: foliar, 144 h, application rate of 200 ppm, 6 days after incubation, adult white flies
Protocol: Example B1: Bemisia tabaci (Cotton White Fly): Feeding/Contact Activity
Cotton leaf discs were placed on agar in 24-well microtiter plates and sprayed with aqueous test solutions prepared from 10,000 ppm DMSO stock solutions. After drying the leaf discs were infested with adult white flies. The samples were checked for mortality 6 days after incubation.

CCS(=O)(=O)c1cc(I)sc1-c1nc2cc(C(F)(F)F)ncc2n1C [Example I-1, 2-(3-ethylsulfonyl-5-iodo-2-thienyl)-3-methyl-6-(trifluoromethyl)imidazo[4,5-c]pyridine]
≥ 80%: mortality at 200 ppm [1] | percent effect (mortality, anti-feeding or growth inhibition) at 12.5 ppm [2] | percent effect (mortality or growth inhibition) at 200 ppm [3] | percent effect (mortality or growth inhibition) at 200 ppm [4] | mortality at 200 ppm [5] | percent control (mortality, anti-feedant effect or growth inhibition) at 200 ppm [6]

CCSc1cc(I)sc1-c1nc2cc(SC(F)(F)F)ncc2n1C [Example I-7, 2-(3-ethylsulfanyl-5-iodo-2-thienyl)-3-methyl-6-(trifluoromethylsulfanyl)imidazo[4,5-c]pyridine]
≥ 80%: mortality at 12 ppm [7] | percent effect (mortality or growth inhibition) at 200 ppm [8] | percent effect (mortality, anti-feeding or growth inhibition) at 12.5 ppm [2] | percent effect (mortality or growth inhibition) at 200 ppm [3] | percent effect (mortality or growth inhibition) at 200 ppm [4] | mortality at 200 ppm [5]

CCSc1cc(-c2ccc(Cl)cc2)sc1-c1nc2cc(C(F)(F)F)ncc2n1C [Example P-6, 2-[5-(4-chlorophenyl)-3-ethylsulfanyl-2-thienyl]-3-methyl-6-(trifluoromethyl)imidazo[4,5-c]pyridine]
≥ 80%: mortality at 200 ppm [1] | percent effect (mortality or growth inhibition) at 200 ppm [8] | mortality at 200 ppm [9] | percent effect (mortality or growth inhibition) at 200 ppm [3] | percent effect (mortality or growth inhibition) at 200 ppm [4] | percent control (mortality, anti-feedant effect or growth inhibition) at 200 ppm [6]

CCS(=O)(=O)c1nc(C2CC2)sc1-c1nc2cc(C(F)(F)F)ncc2n1C [Example P-13, 2-cyclopropyl-4-ethylsulfonyl-5-[3-methyl-6-(trifluoromethyl)imidazo[4,5-c]pyridin-2-yl]thiazole]
≥ 80%: mortality at 24 ppm [10] | percent effect (mortality, anti-feeding or growth inhibition) at 12.5 ppm [2] | percent effect (mortality or growth inhibition) at 200 ppm [3] | percent effect (mortality or growth inhibition) at 200 ppm [4] | mortality at 200 ppm [5] | percent control (mortality, anti-feedant effect or growth inhibition) at 200 ppm [6]

CCSc1nc(C2CC2)sc1-c1nc2cc(C(F)(F)F)ncc2n1C [Example P-14, 2-cyclopropyl-4-ethylsulfanyl-5-[3-methyl-6-(trifluoromethyl)imidazo[4,5-c]pyridin-2-yl]thiazole]
≥ 80%: mortality at 12 ppm [7] | percent effect (mortality or growth inhibition) at 200 ppm [3] | percent effect (mortality or growth inhibition) at 200 ppm [4] | mortality at 200 ppm [5] | percent control (mortality, anti-feedant effect or growth inhibition) at 200 ppm [6] | mortality at 200 ppm [11]

— patent publication US10125139B2, “Pesticidally active polycyclic derivatives with sulfur substituted five-membered ring heterocycles” (Syngenta Participations AG, priority 2015, dated 2018)
